Consider 4 compounds from patent publication US12383542B2, “Methods of treating ovarian cancer” (TESARO, INC., priority 2016, dated 2025).

In data set [1] the test system is PARP activity. Nature of the data set: cells.
For data set [2] the following is noted: in vivo. How it is done: Patients with ovarian cancer regardless of platinum sensitivity and burden of disease were randomized to either Group A or Group B with 6 patients assigned to each group. […] In Group B, patients fasted for at least 10 hours before consuming a high fat meal.
Data set [3] relates to MDA-MB-436, CAPAN-1, GRANTA-519, OVCAR3, HT29, DLD-1, patient derived Ewing's sarcoma and TNBC xenograft models. As to conditions: xenograft models in mice.
On data set [4], the source says: Patients continued to receive their assigned treatment until disease progression, unacceptable toxicity, death, withdrawal of consent, and/or lost to follow-up. Dose interruption and/or reduction were available at any time for any grade toxicity considered intolerable by the patient.
Dose interruption and/or reduction could be implemented at any time for any grade toxicity considered intolerable by the patient. Treatment was required to be interrupted for any non-hematologic AE that was Grade 3 or 4, per NCI CTCAE v.4.02 if the Investigator considered the event to be related to administration of study drug. If toxicity was appropriately resolved to baseline or Grade 1 or less within 28 days, the patient was allowed to restart treatment with study drug, but with a dose level reduction according to Table 4, if prophylaxis was not considered feasible.

The test system of data set [5] is PARP activity. The conditions noted are these: mice dosed with niraparib.
For data set [6], the system named is PARP activity. As to conditions: tumor homogenates.
Data set [7] concerns platinum-sensitive recurrent ovarian cancer. The conditions noted are these: for patients with PFS events at the time of unblinding: patients entering with PR; for Time to second subsequent treatment, HR: <40% of events.
For data set [8], the system named is cancer cell lines that have been silenced for BRCA-1 or BRCA-2, or carry BRCA-1 or BRCA-2 mutations.
Data set [9] concerns Ewing's sarcoma, ALL, NSCLC, SCLC cell lines and tumor cell lines carrying homozygous inactivation of the ATM gene.
Data set [10] has as its system ovarian cancer. The conditions noted are these: cited from earlier work.
Data set [11] concerns ovarian cancer. As to conditions: cited from earlier work. This is another data set of the same source.
For data set [12], the system named is platinum-sensitive epithelial ovarian cancer. The conditions noted are these: cited from earlier work.
Data set [13] relates to advanced BRCA-mutant ovarian cancer. The conditions noted are these: cited from earlier work.
Data set [14] relates to ovarian cancer. As to conditions: relatively small sample size; cited from earlier work.
[15] abbreviates: all patients treated with niraparib.
The mark [16] stands for this setting: HRDneg group, listed as Niraparib.

pIC50: −log10 of the molar value. Values joined by “and” are separate entries in the source; they are usually repeats but may differ in a detail not shown here. Identical values can stand only once. Counter-ions that a name gives are not always drawn. Like-named read-outs stand apart in the source and are kept apart here.

For the compound `NC(=O)c1cccc2cn(-c3ccc([C@@H]4CCCNC4)cc3)nc12` [niraparib, (3S)-3-[4-{7-(aminocarbonyl)-2H-indazol-2-yl}phenyl]piperidine], the pIC50 in the data set on PARP activity [1] (read-out: IC50 of PARP activity in cells) is around 8.40. Further, the IC90 with PARP activity [1] (read-out: inhibitory concentration at 90% of control (IC90)) is around 50 nM. Moreover, in [2], the “bioavailability in fed versus fasted state” value is “substantially similar”. For the same compound, the antitumor activity result in data set [3] is given as “strong antitumor activity”. For the same compound, the “rate of MDS/AML” value in data set [4] (ITT population) worked out at 1.3%. Also, in data set [4] (setting [15]), the “treatment-emergent grade 3/4 anemia” value is on record as 24.8%, the “treatment-emergent grade 3/4 neutropenia” value is on record as 11.2% and the “treatment-emergent grade 3/4 thrombocytopenia” value is 28.3%. Also, the “grade 5 events” value in data set [4] (human, in vivo, 300 mg QD) is reported as “No grade 5 events occurred”. Also, in data set [4] (in vivo), the “TEAEs leading to dose reduction” value was found to be 67%, the “TEAEs leading to treatment discontinuation” value was 15%, the “TEAEs leading to treatment interruption” value is listed as 69% and the “grade 3 or 4 bleeding event” value is “No patient”. In [4] (in vivo), the “incidence of CTCAE Grade ≥3 TEAEs” value is recorded as 74%, the “incidence of SAEs” value is on record as 30%, the “incidence of treatment-related TEAEs” value is on record as 98% and the “patients remaining on niraparib for the duration of the study” value is given as around 85%. For the same compound, the “patients with at least 1 TEAE” value in [4] (in vivo) is “all patients”. For the same compound, in data set [4] (overall niraparib treated population, after decrease by day 15), the “mean platelet count over time” value is listed as “generally returned to near baseline by Cycle 4”. In data set [4] (patients who received niraparib (5 of 367)), the “incidence of MDS/AML” value was 1.4% and 1%. For the same compound, in the data set with PARP activity [5], the “PARP activity in PBMCs” value was “Inhibition of PARP activity”. Besides, the “target engagement (PARP activity)” value in the data set with PARP activity [6] is listed as “Target engagement has also been demonstrated”. In addition, in [7] (HRDneg group), the “% of Patients without Progression or Death at 6 Months” value is on record as 54%, the “% of Patients without Progression or Death at 12 Months” value came out at 27% and the “% of Patients without Progression or Death at 18 Months” value was 19%. In data set [7] (setting [16]), the “% of Patients without Progression or Death at 12 Months” value amounted to 27% and the “% of Patients without Progression or Death at 18 Months” value is 19%. Besides, in [7] (HRDpos group), the “% of Patients without Progression or Death at 6 Months” value was found to be 69%, the “% of Patients without Progression or Death at 12 Months” value stood at 51% and the “% of Patients without Progression or Death at 18 Months” value came to 37%. Further, in data set [7] (both cohorts, versus placebo), the chemotherapy-free interval result is “significantly improved” and the “time to first subsequent treatment” value is “significantly improved”. Further, the “Overall Survival, HR” value in data set [7] (combined cohorts, data immature, 80% of patients censored) is “HR 0.73 (95% CI: 0.480, 1.125)”. Besides, the “Median PFS” value in data set [7] (combined study population (gBRCAmut and non-gBRCAmut), exploratory pooled analysis) is listed as 11.3 months. Besides, the “PFS by niraparib dose of longest duration (100, 200, 300 mg)” value in data set [7] (gBRCAmut and non-gBRCAmut cohorts) is “consistent with the overall population”. Moreover, in data set [7] (gBRCAmut cohort), the “% of Patients without Progression or Death at 6 Months” value is 80%, the “% of Patients without Progression or Death at 12 Months” value came out at 62%, the “% of Patients without Progression or Death at 18 Months” value was determined as 50% and the “Median PFS” value was 21.0 Months. In [7] (gBRCAmut cohort), the “progression-free survival 2” value was determined as 25.8 months. Further, the “Median PFS” value in [7] (gBRCAmut cohort, listed as Niraparib) was 21.0 Months and 21.0 (12.9, NE) Months. Besides, the “patients with PFS events at the time of unblinding” value in data set [7] (gBRCAmut) was 45%. In [7] (gBRCAmut, data immature), the “Time to second subsequent treatment, HR” value is “HR 0.48 (95% CI: 0.272, 0.851)”. The “impact of treatment on OS” value in [7] (in vivo) is “no detrimental impact”. Moreover, in [7] (non-gBRCAmut cohort), the “% of Patients without Progression or Death at 6 Months” value was determined as 61%, the “% of Patients without Progression or Death at 12 Months” value is given as 41% and the “% of Patients without Progression or Death at 18 Months” value is given as 30%. Besides, the “Median PFS” value in data set [7] (non-gBRCAmut, HRD negative) was 6.9 Months. For the same compound, the “Median PFS” value in [7] (non-gBRCAmut, HRD negative, listed as Niraparib) was 6.9 Months and 6.9 (5.6, 9.6) Months. Moreover, in data set [7] (non-gBRCAmut, HRD-positive), the “Median PFS” value is given as 12.9 Months. Moreover, the “Median PFS” value in data set [7] (non-gBRCAmut, HRD-positive, listed as Niraparib) is 12.9 Months and 12.9 (8.1, 15.9) Months. Besides, the “Median PFS” value in data set [7] (non-gBRCAmut, HRDpos/BRCAwt) was found to be 9.3 Months. Moreover, the “Median PFS” value in [7] (non-gBRCAmut, HRDpos/somatic BRCAmut) was determined as 20.9 Months. In addition, in [7] (non-gBRCAmut), the “patients with PFS events at the time of unblinding” value is on record as 56%. The “Time to second subsequent treatment, HR” value in data set [7] (non-gBRCAmut, data immature) is listed as “HR 0.74 (95% CI: 0.519, 1.066)”. Further, in [7] (overall non-gBRCAmut cohort), the “Median PFS” value is on record as 9.3 Months and the “median PFS 2” value was found to be 18.64 months. In addition, the “Median PFS” value in [7] (overall non-gBRCAmut cohort, listed as Niraparib) was 9.3 Months and 9.3 (7.2, 11.2) Months. In [7] (pooled cohorts, versus placebo), the “PFS2-PFS1 (efficacy of next-line treatment)” value is reported as “similar”. In the data set with normal human cells, the “activity on normal human cells” value was “weak activity”. The “consequence on cell cycle” value in [8] (BRCA-defective cells) is given as “cell cycle arrest in G2/M followed by apoptosis”. Also, in data set [8] (compared to wild type counterparts), the anti-proliferative activity entry is on record as “selective anti-proliferative activity”. In addition, in data set [9], the cytotoxicity result is “selectively cytotoxic”.

Consider `O=C(c1cc(Cc2n[nH]c(=O)c3ccccc23)ccc1F)N1CCN(C(=O)C2CC2)CC1` [olaparib, 4-[(3-{[4-(cyclopropylcarbonyl)piperazin-1-yl]carbonyl}-4-fluorophenyl)methyl]phthalazin-1(2H)-one], for which the “Median PFS” value in the data set on ovarian cancer [10] (patients with BRCA mutations) was 11.2 months. Besides, the “planned analysis of the subset of patients with BRCA mutations” value in the data set with ovarian cancer [10] (phase II maintenance study) was “a clear advantage”. Further, the responses in the data set with ovarian cancer [11] (17 patients with BRCA1 or BRCA2 mutations) was 7; with ovarian cancer [11] (46 patients without these mutations), 11. Further, in data set [12] (human, in vivo), the “serious adverse events versus control group” value is listed as “more common”. Besides, the “change in overall survival” value in data set [12] (women with germline BRCA mutations, versus placebo or no treatment) is recorded as “no significant change”.

With `CNCc1ccc(-c2[nH]c3cc(F)cc4c3c2CCNC4=O)cc1` [rucaparib, 8-fluoro-2-{4-[(methylamino)methyl]phenyl}-1,3,4,5-tetrahydro-6H-azepino[5,4,3-cd]indol-6-one ((1S,4R)-7,7-dimethyl-2-oxobicyclo[2.2.1]hept-1-yl)methanesulfonic acid salt], the “Response assessment by independent radiology review” value in [13] (600 mg orally twice daily, 106 patients) is 42%. The “median DOR” value in data set [13] (independent radiology review) is given as 6.7 months. In addition, the figures for the “Investigator-assessed ORR” value in data set [13] (platinum-refractory patients), in data set [13] (platinum-resistant patients) and in data set [13] (platinum-sensitive patients) were 0%, 25% and 66%, respectively.

With `C[C@]1(c2nc3c(C(N)=O)cccc3[nH]2)CCCN1` [veliparib, 2-[(R)-2-methylpyrrolidin-2-yl]-1H-benzimidazole-4-carboxamide], the “effect on the progression of ovarian cancer” value with ovarian cancer [14] is “unable to show any effect”.
